Key:
[1] = Saturation solubility study in ddH2O; format: physicochemical; conditions: 25°C, 90 minutes; for Saturation & Solubility: 100 rpm, mean ± SD of triplicates, per batch; for saturation solubility (water solubility): independent batches
Experimental: Determination of Saturation Solubility of Chidamide-HCl, Chidamide-H2SO4, and Celecoxib-Na Salts. Sample of 5 mg of chidamide-HCl, chidamide-H2SO4, or celecoxib-Na salts was added to 5 ml volumetric flasks containing ddH2O and shook at 100 rpm in an incubator at 25°C for 90 minutes. The resulting suspension was filtered through a 0.22 µm filter. The concentrations of chidamide-HCl, chidamide-H2SO4, and celecoxib-Na salts were determined spectrophotometrically at 256 nm, 256 nm, and 253 nm, respectively. The saturation solubility of each sample was determined in triplicates and the mean value and standard deviation were reported. Preparation of standard curves is described as below.

[2] = low solubility and high permeability; cited from earlier work

Compound	Saturation & Solubility [1]	saturation solubility (water solubility) [1]	BCS (biopharmaceutical classification system) class [2]
Cc1ccc(-c2cc(C(F)(F)F)nn2-c2ccc(S(N)(=O)=O)cc2)cc1 [Celecoxib-API, 4-[5-(4-Methylphenyl)-3-(trifluoromethyl)pyrazol-1-yl]benzenesulfonamide]	BDL	water-insoluble	class II
Nc1cc(F)ccc1NC(=O)c1ccc(CNC(=O)/C=C/c2cccnc2)cc1 [Chidamide-API, 4-(((E)-3-(pyridin-3-yl)acrylamido)methyl)-N-(2-amino-4-fluorophenyl)benzamide]	BDL	water-insoluble	
